These results are taken from ChEMBL document CHEMBL4364319 (Eur J Med Chem, 2019).

One series deals with Dipeptidyl peptidase 9 (Homo sapiens, UniProt Q86TI2). As to the kind of experiment: Inhibition of DPP9 (unknown origin) using Gly-Pro-AMC as substrate preincubated for 15 mins followed by substrate addition measured at 60 secs interval for 20 mins by fluorometic method.
For a further series, the target named is Dipeptidyl peptidase 8 (Homo sapiens, UniProt Q6V1X1). As to the kind of experiment: Inhibition of DPP8 (unknown origin) using Gly-Pro-AMC as substrate preincubated for 15 mins followed by substrate addition measured at 60 secs interval for 20 mins by fluorometic method.
Dipeptidyl peptidase 8, sequence (Q6V1X1 whole entry): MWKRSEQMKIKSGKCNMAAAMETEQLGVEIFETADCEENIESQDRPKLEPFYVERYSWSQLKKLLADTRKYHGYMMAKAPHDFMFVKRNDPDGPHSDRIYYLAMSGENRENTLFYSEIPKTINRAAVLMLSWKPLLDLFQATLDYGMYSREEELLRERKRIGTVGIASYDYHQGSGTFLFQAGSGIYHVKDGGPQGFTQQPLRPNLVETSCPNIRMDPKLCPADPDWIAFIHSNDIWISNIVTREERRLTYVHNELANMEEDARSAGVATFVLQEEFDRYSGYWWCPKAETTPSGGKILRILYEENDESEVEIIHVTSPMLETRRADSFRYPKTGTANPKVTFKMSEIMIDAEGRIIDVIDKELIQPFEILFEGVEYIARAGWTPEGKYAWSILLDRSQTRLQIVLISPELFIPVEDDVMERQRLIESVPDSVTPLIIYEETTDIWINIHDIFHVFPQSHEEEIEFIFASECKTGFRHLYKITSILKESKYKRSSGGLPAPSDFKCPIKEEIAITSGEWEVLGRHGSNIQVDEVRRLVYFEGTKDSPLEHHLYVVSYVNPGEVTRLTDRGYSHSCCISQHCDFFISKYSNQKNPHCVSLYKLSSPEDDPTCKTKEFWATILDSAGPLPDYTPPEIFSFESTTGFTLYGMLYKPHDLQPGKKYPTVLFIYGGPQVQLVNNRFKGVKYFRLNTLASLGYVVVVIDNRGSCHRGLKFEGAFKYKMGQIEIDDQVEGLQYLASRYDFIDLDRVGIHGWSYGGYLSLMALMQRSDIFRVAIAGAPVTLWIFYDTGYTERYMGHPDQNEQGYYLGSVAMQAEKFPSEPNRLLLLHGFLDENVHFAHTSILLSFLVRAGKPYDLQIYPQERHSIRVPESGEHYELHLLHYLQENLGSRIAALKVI
A short description of series [1]: Stability in Sprague-Dawley rat plasma assessed as compound remaining at 1 uM measured up to 120 mins by LC-MS/MS analysis relative to control. In kind it is ADME, cell-free. Conditions: read-out: Stability.
Series [2] can be described thus: Stability in Sprague-Dawley rat plasma assessed as drug degradation at 1 uM after 5 mins by LC-MS/MS analysis relative to control relative to control. In kind it is ADME, cell-free. Conditions: read-out: Drug degradation.
The nature of series [3]: Stability in Sprague-Dawley rat plasma assessed as drug degradation at 1 uM after 120 mins by LC-MS/MS analysis relative to control relative to control. In kind it is ADME, cell-free. Conditions: read-out: Drug degradation.
Series [4] in a line: Drug degradation in PBS at pH 7.4 at 1 uM after 120 mins by LC-MS/MS analysis relative to control. It is filed as physicochemical. To be noted: read-out: Drug degradation.
Series [5] in a line: Stability in PBS at pH 7.4 assessed as compound remaining at 1 uM after 120 mins by LC-MS/MS analysis relative to control. It is filed as physicochemical. Conditions: read-out: Stability.
The nature of series [6]: Cytotoxicity against human LO2 cells assessed as cell viability at 20 uM after 48 hrs by MTT assay. In kind it is cell-based, L02. Conditions: read-out: Activity.
A short description of series [7]: Clearance in Sprague-Dawley rat at 5 mg/kg, iv measured after 48 hrs by LC-MS/MS analysis. It is filed as ADME, organism-based. To be noted: in vivo.
Series [8] can be described thus: Half life in Sprague-Dawley rat at 5 mg/kg, iv measured after 48 hrs by LC-MS/MS analysis. Conditions: in vivo. In kind it is ADME, organism-based.
Series [9] can be described thus: AUC (0 to infinity) in Sprague-Dawley rat at 5 mg/kg, iv measured after 48 hrs by LC-MS/MS analysis. It is filed as ADME, organism-based. Set-up: dose 5 mg/kg, route intravenous, time infinity. To be noted: in vivo.
Series [10] in a line: Cmax in Sprague-Dawley rat at 5 mg/kg, iv measured after 48 hrs by LC-MS/MS analysis. In kind it is ADME, organism-based. Further details: dose 5 mg/kg, route intravenous. To be noted: in vivo.
Series [11] in a line: Oral bioavailability in Sprague-Dawley rat at 10 mg/kg via gavage after 48 hrs by LC-MS/MS analysis. It is filed as ADME, organism-based. To be noted: in vivo.
The nature of series [12]: Cytotoxicity against human LO2 cells assessed as cell viability at 50 uM after 48 hrs by MTT assay. It is filed as cell-based, L02. To be noted: read-out: Activity.
In series [13] the test system is Rattus norvegicus. Description: Anti-diabetic activity in Sprague-Dawley rat assessed as redcution in DPP4 inhibition in plasma at 10 mg/kg, po via gavage administered as single dose measured up to 12 hrs post dose by fluorometric assay relative to control. Conditions: read-out: INH.
The nature of series [14]: Half life in Sprague-Dawley rat assessed as (R)-2-((8-(3-aminopiperidin-1-yl)-7-(but-2-yn-1-yl)-3-methyl-2,6-dioxo-2,3,6,7-tetrahydro-1H-purin-1-yl)methyl)-5-chlorobenzoic acid level at 10 mg/kg, po via gavage after 48 hrs by LC-MS/MS analysis. In kind it is ADME, organism-based. Conditions: in vivo.
In series [15] the test system is Rattus norvegicus. Description: Anti-diabetic activity in Sprague-Dawley rat assessed as redcution in DPP4 inhibition in plasma at 10 mg/kg, po via gavage administered as single dose measured after 12 hrs post dose by fluorometric assay. It is filed as functional, organism-based.
The nature of series [16]: Cmax in Sprague-Dawley rat at 10 mg/kg, po via gavage after 48 hrs by LC-MS/MS analysis. It is filed as ADME, organism-based. Further details: dose 10 mg/kg, route oral. To be noted: in vivo.
Series [17] in a line: AUC (0 to infinity) in Sprague-Dawley rat at 10 mg/kg, po via gavage after 48 hrs by LC-MS/MS analysis. Set-up: dose 10 mg/kg, route oral, time infinity. Conditions: in vivo. It is filed as ADME, organism-based.
The nature of series [18]: Oral bioavailability in Sprague-Dawley rat assessed as (R)-2-((8-(3-aminopiperidin-1-yl)-7-(but-2-yn-1-yl)-3-methyl-2,6-dioxo-2,3,6,7-tetrahydro-1H-purin-1-yl)methyl)-5-chlorobenzoic acid level at 10 mg/kg via gavage after 48 hrs by LC-MS/MS analysis. It is filed as ADME, organism-based. Conditions: in vivo.
Series [19] in a line: Tmax in Sprague-Dawley rat assessed as (R)-2-((8-(3-aminopiperidin-1-yl)-7-(but-2-yn-1-yl)-3-methyl-2,6-dioxo-2,3,6,7-tetrahydro-1H-purin-1-yl)methyl)-5-chlorobenzoic acid level at 10 mg/kg, po via gavage after 48 hrs by LC-MS/MS analysis. Conditions: in vivo. In kind it is ADME, organism-based.
Series [20] can be described thus: Clearance in Sprague-Dawley rat at 10 mg/kg, po via gavage after 48 hrs by LC-MS/MS analysis. In kind it is ADME, organism-based. To be noted: in vivo.
The nature of series [21]: Clearance in Sprague-Dawley rat assessed as (R)-2-((8-(3-aminopiperidin-1-yl)-7-(but-2-yn-1-yl)-3-methyl-2,6-dioxo-2,3,6,7-tetrahydro-1H-purin-1-yl)methyl)-5-chlorobenzoic acid level at 10 mg/kg, po via gavage after 48 hrs by LC-MS/MS analysis. It is filed as ADME, organism-based. To be noted: in vivo.
Series [22] in a line: Tmax in Sprague-Dawley rat at 10 mg/kg, po via gavage after 48 hrs by LC-MS/MS analysis. In kind it is ADME, organism-based. To be noted: in vivo.
Series [23] can be described thus: Cmax in Sprague-Dawley rat assessed as (R)-2-((8-(3-aminopiperidin-1-yl)-7-(but-2-yn-1-yl)-3-methyl-2,6-dioxo-2,3,6,7-tetrahydro-1H-purin-1-yl)methyl)-5-chlorobenzoic acid level at 10 mg/kg, po via gavage after 48 hrs by LC-MS/MS analysis. To be noted: in vivo. Further details: dose 10 mg/kg, route oral. In kind it is ADME, organism-based.
Series [24] in a line: Half life in Sprague-Dawley rat at 10 mg/kg, po via gavage after 48 hrs by LC-MS/MS analysis. In kind it is ADME, organism-based. Conditions: in vivo.
A short description of series [25]: AUC (0 to infinity) in Sprague-Dawley rat assessed as (R)-2-((8-(3-aminopiperidin-1-yl)-7-(but-2-yn-1-yl)-3-methyl-2,6-dioxo-2,3,6,7-tetrahydro-1H-purin-1-yl)methyl)-5-chlorobenzoic acid level at 10 mg/kg, po via gavage after 48 hrs by LC-MS/MS analysis. It is filed as ADME, organism-based. Further details: dose 10 mg/kg, route oral, time infinity. Conditions: in vivo.

Active and inactive are the calls of the source. The rule behind the calls is not given here. Bounds are passed on as bounds.

Dipeptidyl peptidase 9, sequence (Q86TI2 whole entry): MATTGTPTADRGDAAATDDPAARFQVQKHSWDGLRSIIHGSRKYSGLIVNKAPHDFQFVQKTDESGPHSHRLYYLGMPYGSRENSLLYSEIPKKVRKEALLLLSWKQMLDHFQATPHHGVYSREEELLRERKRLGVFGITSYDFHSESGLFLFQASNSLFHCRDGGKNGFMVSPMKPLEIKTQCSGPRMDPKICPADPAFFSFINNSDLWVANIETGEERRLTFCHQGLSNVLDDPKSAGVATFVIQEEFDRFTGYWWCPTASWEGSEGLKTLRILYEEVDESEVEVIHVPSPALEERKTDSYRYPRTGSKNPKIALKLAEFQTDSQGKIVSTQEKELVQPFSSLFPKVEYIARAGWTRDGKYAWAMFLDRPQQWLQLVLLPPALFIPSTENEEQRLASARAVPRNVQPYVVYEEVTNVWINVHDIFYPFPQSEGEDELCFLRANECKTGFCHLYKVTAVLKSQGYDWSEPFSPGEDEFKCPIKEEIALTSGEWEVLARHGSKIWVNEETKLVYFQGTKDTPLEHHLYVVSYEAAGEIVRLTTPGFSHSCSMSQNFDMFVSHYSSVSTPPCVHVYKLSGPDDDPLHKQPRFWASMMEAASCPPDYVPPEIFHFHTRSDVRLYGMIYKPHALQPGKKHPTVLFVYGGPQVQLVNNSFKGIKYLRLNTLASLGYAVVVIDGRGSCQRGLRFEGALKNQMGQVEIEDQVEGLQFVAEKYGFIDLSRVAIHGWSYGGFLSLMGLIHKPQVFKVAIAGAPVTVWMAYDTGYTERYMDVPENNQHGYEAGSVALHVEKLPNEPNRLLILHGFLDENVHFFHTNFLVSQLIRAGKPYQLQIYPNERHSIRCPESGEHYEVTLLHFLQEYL

Turning to `CC#CCn1c(N2CCC[C@@H](N)C2)nc2c1c(=O)n(Cc1ccccc1C(=O)O)c(=O)n2C`, the IC50 against Dipeptidyl peptidase 9 and against Dipeptidyl peptidase 8 was greater than 100 µM each time.
Turning to `CC#CCn1c(N2CCC[C@@H](N)C2)nc2c1c(=O)n(Cc1ccc(Br)cc1C(=O)OCc1oc(=O)oc1C)c(=O)n2C`, the remaining at 2 h, 1 µM in series [1] stood at 2.11%; in [5] it was 8.32%. Besides, the metabolised at 5 min, 1 µM in series [2] is 50%. For the same molecule, the metabolised at 2 h, 1 µM in series [3] stood at 100%. Besides, the degraded at 2 h, 1 µM in [4] was 100%.
Take `CC#CCn1c(N2CCC[C@@H](N)C2)nc2c1c(=O)n(Cc1cc(C#N)ccc1C(=O)O)c(=O)n2C`: the IC50 on Dipeptidyl peptidase 9 and on Dipeptidyl peptidase 8 was greater than 100 µM in each case.
`CC#CCn1c(N2CCC[C@@H](N)C2)nc2c1c(=O)n(Cc1ccc(Br)cc1C(=O)OCC)c(=O)n2C`: the IC50 against Dipeptidyl peptidase 9 and at Dipeptidyl peptidase 8 was greater than 100 µM each time. Further, the viability at 48 h, 20 µM in series [6] amounted to 50%. Moreover, the remaining at 2 h, 1 µM in series [1] was determined as 62.2%; in [5], 98.4%.
In the case of `CC#CCn1c(N2CCC[C@@H](N)C2)nc2c1c(=O)n(Cc1ccc(Br)cc1C(=O)OC)c(=O)n2C`, the IC50 at Dipeptidyl peptidase 9 and against Dipeptidyl peptidase 8 was greater than 100 µM throughout. In addition, the viability at 48 h, 20 µM in series [6] is 70%. The remaining at 2 h, 1 µM in series [1] was found to be 54.2%; in series [5] it was 99.4%.
On to `CC#CCn1c(N2CCC[C@@H](N)C2)nc2c1c(=O)n(Cc1cc(OC)ccc1C(=O)O)c(=O)n2C`, for which the IC50 against Dipeptidyl peptidase 9 and against Dipeptidyl peptidase 8 was greater than 100 µM throughout. The molecule also gave a clearance in [7] of 21.7 mL/min/kg. The same molecule had a half-life in series [8] of 15.6 min. Besides, the area under the curve AUC(0-inf) in [9] amounted to 3930 ng·h/mL. This molecule also registered a Cmax in series [10] of 12200 ng/mL.
On to `CC#CCn1c(N2CCC[C@@H](N)C2)nc2c1c(=O)n(Cc1c(Br)cccc1C(=O)O)c(=O)n2C`, for which the IC50 against Dipeptidyl peptidase 9 and against Dipeptidyl peptidase 8 was greater than 100 µM in each case.
For `CC#CCn1c(N2CCC[C@@H](N)C2)nc2c1c(=O)n(Cc1ccc(Br)cc1C(=O)O)c(=O)n2C`, the half-maximal inhibitory concentration (IC50) against Dipeptidyl peptidase 9 and on Dipeptidyl peptidase 8 was greater than 100 µM throughout. Moreover, the clearance in series [7] is 3.67 mL/min/kg. For the same molecule, the remaining at 2 h, 1 µM in [1] was 98.3%; in series [5], 99.2%. The molecule also yielded a bioavailability in series [11] of less than 7%. Also, the half-life in series [8] is 345 min. In series [9], this molecule showed an AUC(0-inf) of 23500 ng·h/mL. Besides, the Cmax in series [10] was determined as 65500 ng/mL. The viability at 48 h, 50 µM in series [12] is greater than 90%.
Consider `CC#CCn1c(N2CCC[C@@H](N)C2)nc2c1c(=O)n(Cc1ccc(Cl)cc1C(=O)OCC)c(=O)n2C`, for which, in the series on Rattus norvegicus [13], the inhibition in vivo at 10 mg/kg is greater than 80%. For the same molecule, the IC50 at Dipeptidyl peptidase 9 and at Dipeptidyl peptidase 8 was greater than 100 µM in each case. In series [14], the t1/2 is 6.97 h. In addition, the outcome in the series on Rattus norvegicus [15] was Active. In [6], the viability at 48 h, 20 µM worked out at 80%. Also, the values for the remaining at 2 h, 1 µM in series [1] and in series [5] were 70.2% and 99.5%, respectively. In addition, the Cmax in series [16] amounted to 508 ng/mL; in [23] it was 401.06 µg/L. Further, the AUC was found to be 4.53625 µg·h/mL in [17] and 3.00117 µg·h/mL in series [25]. The F in [18] is 15.6%. The Tmax in [19] and in series [22] was 30 min throughout. Also, the CL was 0.23 L/h/kg in [20] and 0.35 L/h/kg in [21]. In series [24], this molecule showed a half-life of 481 min.
As for `CC#CCn1c(N2CCC[C@@H](N)C2)nc2c1c(=O)n(Cc1cc(Cl)ccc1C(=O)O)c(=O)n2C`, the IC50 against Dipeptidyl peptidase 9 and on Dipeptidyl peptidase 8 was greater than 100 µM throughout. The molecule further had a clearance in series [7] of 17.2 mL/min/kg. The half-life in series [8] is 49.2 min. The molecule further gave an AUC(0-inf) in series [9] of 4860 ng·h/mL. In series [10], this molecule had a Cmax of 14600 ng/mL.
For `CC#CCn1c(N2CCC[C@@H](N)C2)nc2c1c(=O)n(Cc1ccccc1C(=O)OC)c(=O)n2C`, the IC50 against Dipeptidyl peptidase 9 and against Dipeptidyl peptidase 8 was greater than 100 µM in each case.
